From patent US4180564A, “A-38533 Antibiotics and process for production thereof” (Eli Lilly and Company, priority 1978, dated 1979)
Converted amounts (≈) assume the structure as drawn.

Columns and labels:
P. aeruginosa = test: In vivo antimicrobial activity, P. aeruginosa infection in mice; conditions: Pseudomonas aeruginosa, sc
Text: The A-38533 antibiotics have shown in vivo antimicrobial activity against experimental bacterial infections. […] Bacteriol. 81, 233-235 (1961)]. The LD50 values in Table XI refer to the infecting challenge of the pathogen, the measure being the number by which the LD50 (ip) of the infecting organism is multiplied.

Pseudomonas aeruginosa = test: In vitro activity, standard agar-dilution test (MIC); type: cell-based
Text: The A-38533 antibiotics inhibit the growth of certain gram-negative pathogenic organisms, particularly Pseudomonas species. The minimal inhibitory concentrations (MIC's) at which the A-38533 factors A1, A2, B and C inhibit various strains of Pseudomonas aeruginosa and Neisseria gonorrhea, as determined by standard agar-dilution tests, are summarized in Table X.

SMILES	ED50 (P. aeruginosa; Test A, P. aeruginosa X239, SC, ×2 doses, challenge 76 × LD50 (ip))	ED50 (P. aeruginosa; Test B, P. aeruginosa 24J, ×2 doses, challenge 7.6 × LD50 (ip))	ED50 (P. aeruginosa; Test C, P. aeruginosa 24J, ×2 doses, challenge 21.5 × LD50 (ip))	ED50 (P. aeruginosa; Test A, P. aeruginosa X239, SC, ×3 doses, challenge 76 × LD50 (ip))	ED50 (P. aeruginosa; Test B, P. aeruginosa 24J, ×3 doses, challenge 7.6 × LD50 (ip))	ED50 (P. aeruginosa; Test C, P. aeruginosa 24J, ×3 doses, challenge 21.5 × LD50 (ip))	MIC (Pseudomonas aeruginosa; strain 4276)	MIC (Pseudomonas aeruginosa; strain PA103)	MIC (Pseudomonas aeruginosa; strain PI23)	MIC (Pseudomonas aeruginosa; strain PS9)	MIC (Pseudomonas aeruginosa; strain PS15)	MIC (Pseudomonas aeruginosa; strain PS25)	MIC (Pseudomonas aeruginosa; strain X48)	MIC (Pseudomonas aeruginosa; strain X239)	MIC (Pseudomonas aeruginosa; strain X528)
NC[C@H]1O[C@H](O[C@H]2[C@H](O)[C@@H](O[C@H]3O[C@H](CO)[C@@H](O)[C@H](N)[C@H]3O)[C@H](N)C[C@@H]2N)[C@H](N)C[C@@H]1O [Tobramycin]	0.4 mg/kg	0.4 mg/kg	0.6 mg/kg	–	–	–	–	–	–	–	–	–	–	–	–
CC1(C)S[C@@H]2[C@H](NC(=O)C(C(=O)O)c3ccccc3)C(=O)N2[C@H]1C(=O)O (stereo partly drawn) [Carbenicillin]	–	–	–	29.3 mg/kg	31.9 mg/kg	57.5 mg/kg	128 µg/mL (≈ 338 µM)	32 µg/mL (≈ 84.6 µM)	32 µg/mL (≈ 84.6 µM)	32 µg/mL (≈ 84.6 µM)	16 µg/mL (≈ 42.3 µM)	64 µg/mL (≈ 169 µM)	16 µg/mL (≈ 42.3 µM)	32 µg/mL (≈ 84.6 µM)	16 µg/mL (≈ 42.3 µM)
